What was measured:
Human plasma kallikrein = target: T1, Human plasma kallikrein (Homo sapiens, UniProt P03952); test: Plasma Kallikrein Assay; format: biochemical; conditions: purified Human plasma kallikrein 0.5 nM, substrate Acetyl-K-P-R-AFC, pH 7.4
T1 construct: yields a heavy chain (371 amino acids) and a light chain (248 amino acids); purchased Enzyme Research Laboratories

human factor XIa = human factor XIa (Homo sapiens, UniProt P03951); test: Factor XIa Assay; format: biochemical; conditions: human factor XIa 0.04 nM, substrate GPR-AFC, 30 min pre-incubation at 25° C., pH 7.4; read-out: FXIa IC50
human factor XIa, sequence (P03951 388-625 limits assumed): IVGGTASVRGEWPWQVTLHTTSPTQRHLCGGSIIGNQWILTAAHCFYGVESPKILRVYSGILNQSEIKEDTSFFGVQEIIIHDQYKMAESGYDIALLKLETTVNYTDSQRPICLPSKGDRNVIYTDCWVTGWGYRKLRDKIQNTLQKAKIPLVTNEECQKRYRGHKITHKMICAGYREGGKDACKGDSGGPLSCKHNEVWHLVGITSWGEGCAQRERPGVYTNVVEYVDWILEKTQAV
human factor XIa, sequence (P03951 19-387 partner limits assumed): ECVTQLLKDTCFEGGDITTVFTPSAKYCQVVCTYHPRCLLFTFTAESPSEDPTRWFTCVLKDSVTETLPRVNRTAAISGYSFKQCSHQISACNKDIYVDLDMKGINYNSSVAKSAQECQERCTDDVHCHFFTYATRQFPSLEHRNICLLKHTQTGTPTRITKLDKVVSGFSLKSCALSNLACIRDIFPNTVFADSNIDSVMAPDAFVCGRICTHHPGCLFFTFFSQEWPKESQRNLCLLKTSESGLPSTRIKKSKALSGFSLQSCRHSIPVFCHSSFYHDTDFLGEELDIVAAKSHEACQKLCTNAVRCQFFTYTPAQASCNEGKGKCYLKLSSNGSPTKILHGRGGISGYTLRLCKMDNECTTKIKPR

T1 sequence (P03952 391-638 limits assumed): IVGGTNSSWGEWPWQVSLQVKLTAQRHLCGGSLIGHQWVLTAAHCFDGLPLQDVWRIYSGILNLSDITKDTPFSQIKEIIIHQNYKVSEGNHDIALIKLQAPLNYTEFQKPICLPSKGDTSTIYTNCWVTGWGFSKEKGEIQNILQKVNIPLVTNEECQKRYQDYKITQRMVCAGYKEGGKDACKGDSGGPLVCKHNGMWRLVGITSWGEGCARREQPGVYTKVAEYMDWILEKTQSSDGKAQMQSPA
T1 sequence (P03952 20-390 partner limits assumed): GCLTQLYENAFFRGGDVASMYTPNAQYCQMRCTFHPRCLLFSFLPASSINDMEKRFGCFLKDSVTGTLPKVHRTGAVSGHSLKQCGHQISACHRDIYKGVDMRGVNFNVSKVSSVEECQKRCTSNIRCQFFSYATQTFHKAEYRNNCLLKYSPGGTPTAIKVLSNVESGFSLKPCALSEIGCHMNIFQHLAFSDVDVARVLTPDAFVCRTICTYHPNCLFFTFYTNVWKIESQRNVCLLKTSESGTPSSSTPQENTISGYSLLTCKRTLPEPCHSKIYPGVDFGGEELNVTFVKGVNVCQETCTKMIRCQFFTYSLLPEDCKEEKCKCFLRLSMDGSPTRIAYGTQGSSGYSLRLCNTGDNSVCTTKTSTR

| IC50 (Human plasma kallikrein) [nM] | IC50 (human factor XIa) [nM] | SMILES |
| --- | --- | --- |
| 2 | 6350 | CC(c1cnc(N2CC[C@H]2CN2C[C@@H](O)[C@H](O)C2)nc1)n1cc(NC(=O)c2cncc(-c3c(C(F)F)ccc(Cl)c3F)n2)cn1 (stereo partly drawn) [Example 168, 6-(3-Chloro-6-(difluoromethyl)-2-fluorophenyl)-N-(1-(1-(2-((S)-2-(((3R,4R)-3,4-dihydroxypyrrolidin-1-yl)methyl)azetidin-1-yl)pyrimidin-5-yl)ethyl)-1H-pyrazol-4-yl)pyrazine-2-carboxamide] |
| 45.9 | 5350 | O=C(Nc1cnn(S(=O)(=O)c2ccc(N3CCC3)nc2)c1)c1cncc(-c2c(C(F)F)ccc(Cl)c2F)n1 [Example 26, N-(1-((6-(Azetidin-1-yl)pyridin-3-yl)sulfonyl)-1H-pyrazol-4-yl)-6-(3-chloro-6-(difluoromethyl)-2-fluorophenyl)pyrazine-2-carboxamide] |
| 14.6 | 4630 | O=C(Nc1cnn(Cc2cnc(N3CCC3)nc2C(F)F)c1)c1cncc(-c2c(C(F)F)ccc(Cl)c2F)n1 [Example 19, N-(1-((2-(Azetidin-1-yl)-4-(difluoromethyl)pyrimidin-5-yl)methyl)-1H-pyrazol-4-yl)-6-(3-chloro-6-(difluoromethyl)-2-fluorophenyl)pyrazine-2-carboxamide] |
| 3.2 | 3330 | CC(c1cnc(N2CC[C@H]2[C@@H](C)N2C[C@@H](O)[C@H](O)C2)nc1)n1cc(NC(=O)c2cncc(-c3c(C(F)F)ccc(Cl)c3F)n2)cn1 (stereo partly drawn) [Example 188, 6-(3-Chloro-6-(difluoromethyl)-2-fluorophenyl)-N-(1-(1-(2-((S)-2-((R)-1-((3R,4R)-3,4-dihydroxypyrrolidin-1-yl)ethyl)azetidin-1-yl)pyrimidin-5-yl)ethyl)-1H-pyrazol-4-yl)pyrazine-2-carboxamide] |
| 5 | 2580 | CC(c1ccc(N2CCC2)nc1)n1cc(NC(=O)c2cncc(-c3c(C(F)F)ccc(Cl)c3F)n2)cn1 (single isomer, unassigned) [Example 38, (R or S)-N-(1-(1-(6-(azetidin-1-yl)pyridin-3-yl)ethyl)-1H-pyrazol-4-yl)-6-(3-chloro-6-(difluoromethyl)-2-fluorophenyl)pyrazine-2-carboxamide] |
| 2.8 | 120 | C[C@@H](O)c1ncc(-c2c(C(F)F)ccc(Cl)c2F)nc1C(=O)Nc1cnn(Cc2cnc(N3CCC3)nc2)c1 (single isomer, unassigned) [Example 135] |
| 1 | 5190 | CC(c1cnc(N2CC[C@H]2CN2CC[C@H](O)C2)nc1)n1cc(NC(=O)c2cncc(-c3c(C(F)F)ccc(Cl)c3F)n2)cn1 (stereo partly drawn) [Example 162, 6-(3-Chloro-6-(difluoromethyl)-2-fluorophenyl)-N-(1-(1-(2-((S)-2-(((S)-3-hydroxypyrrolidin-1-yl)methyl)azetidin-1-yl)pyrimidin-5-yl)ethyl)-1H-pyrazol-4-yl)pyrazine-2-carboxamide] |
| 2.5 | 2260 | C[C@@H](c1cnc(N2C[C@@H]3C[C@@H]3[C@@H]2CO)nc1)n1cc(NC(=O)c2cncc(-c3c(C(F)F)ccc(Cl)c3F)n2)cn1 (single isomer, unassigned) [Example 71, 6-(3-Chloro-6-(difluoromethyl)-2-fluorophenyl)-N-(1-((S or R)-1-(2-((1S,2R,5R or 1R,2S,5S)-2-(hydroxymethyl)-3-azabicyclo[3.1.0]hexan-3-yl)pyrimidin-5-yl)ethyl)-1H-pyrazol-4-yl)pyrazine-2-carboxamide] |
| 1.8 | 372 | CC(c1cnc(N2CCC2)nc1)n1cc(NC(=O)c2cncc(-c3cc(Cl)ccc3-n3cnnn3)n2)cn1 (single isomer, unassigned) [Example 59, (R or S)-N-(1-(1-(2-(Azetidin-1-yl)pyrimidin-5-yl)ethyl)-1H-pyrazol-4-yl)-6-(5-chloro-2-(1H-tetrazol-1-yl)phenyl)pyrazine-2-carboxamide] |

Source: patent US20230416227A1, “PLASMA KALLIKREIN INHIBITORS” (Merck Sharp & Dohme LLC, priority 2020, published 2023)
